This assay concerns vaccinia virus. The experiment in a line: microbe, parasite or virus in culture. In kind it is cell-based. Particulars: Orthopoxvirus vaccinia, BSC-40, in Chlorocebus sabaeus, read-out: EC50 (inhibition of viral replication).

Consider `CC(C)C(=O)Nc1cc(C(=O)N[C@H](C)c2ccc(F)cc2)cc(-c2c[nH]c(-c3cc4ccccc4cn3)n2)c1` [Example 1], for which the EC50 is no more than 0.5 µM. As for `C[C@@H](NC(=O)c1cc(Cl)cc(-c2c[nH]c(-c3cc4ccccc4cn3)n2)c1)c1ccc(F)cc1` [Example 5, N-[(1R)-1-(4-fluorophenyl)ethyl]-3-(2-isoquinoline-3-yl-1H-imidazol-4-yl)-5-chlorobenzamide], the figure is no more than 0.5 µM; as for `C[C@@H](NC(=O)c1cccc(-c2c[nH]c(-c3cc4ccccc4cn3)n2)c1)c1ccc(F)cc1` [Example 6, N-[(1R)-1-(4-fluorophenyl)ethyl]-3-(2-isoquinoline-3-yl-1H-imidazol-4-yl)benzamide], no more than 0.5 µM. For `C[C@@H](NC(=O)c1cc(NC(=O)C(C)(C)C)cc(-c2c[nH]c(-c3cc4ccccc4cn3)n2)c1)c1ccc(F)cc1` [Example 15], the EC50 was no more than 0.5 µM. For the molecule `C[C@@H](NC(=O)c1cc(NC(=O)C(C)(C)F)cc(-c2c[nH]c(-c3cc4ccccc4cn3)n2)c1)c1ccc(F)cc1` [Example 17, N-[(1R)-1-(4-fluorophenyl)ethyl]-3-(2-isoquinoline-3-yl-1H-imidazol-4-yl)-5-(2-fluoroisobutyrylamino)benzamide], the EC50 was no more than 0.5 µM.

The term EC50 denotes the midpoint of the concentration-response curve.

For the origin of these results see patent publication US20070219239A1, “Nitrogen-containing heterocycle derivatives, pharmaceutical compositions, and methods of use thereof as antiviral agents” (priority 2006, published 2007).
